Laboratory results published in patent publication US20240122179A1, “AUXINIC HERBICIDES AND METHODS OF USE THEREOF” (CORTEVA AGRISCIENCE LLC, priority 2021, published 2024).
Read-outs that look alike come from different tables or passages of the source.

What was measured:
[1] = system: Conyza canadensis (L.) (ERICA); assay: Postemergence herbicide evaluation, percent reduction in plant size vs untreated control, 21 days after treatment; assay type: in vivo, Conyza canadensis (L.) (Horseweed); conditions: Erigeron canadensis, post-emergence, 504 h, ERICA, postemergence, read-out: Control/Injury; for pest or weed control at 140 g/ha: rate 140 g ae/ha; for pest or weed control at 280 g/ha: rate 280 g ae/ha
Procedure, shortened: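 Track-sprayer applications (187 L/ha, 276 kPa) of 140 or 280 g ae/ha, technical material dissolved in acetone/DMSO then diluted with crop oil and surfactant-containing solvent, to greenhouse Conyza canadensis at 2-8 leaves. After 21 days, size reduction relative to untreated plants was recorded; 3-4 randomized replicates.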

[2] = system: Ambrosia artemisiifolia (AMBEL); assay: as above; assay type: in vivo, Ambrosia artemisiifolia (common ragweed); conditions: post-emergence, 504 h, AMBEL, postemergence, read-out: Control/Injury; for pest or weed control at 140 g/ha: rate 140 g ae/ha; for pest or weed control at 280 g/ha: rate 280 g ae/ha
Procedure, shortened: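 Test compounds at 140 or 280 g ae/ha were applied by track sprayer (187 L/ha, spray solution containing acetone/DMSO, isopropanol, crop oil, surfactant) to 2–8 leaf plants, 3–4 replicates. Plants were kept in a greenhouse at 25–28 °C. Size reduction was scored against untreated controls at 21 days.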

Amaranthus rudis (AMATA) = assay: as above; assay type: in vivo, Amaranthus rudis (tall water hemp); conditions: Amaranthus tuberculatus, post-emergence, 504 h, AMATA, postemergence, read-out: Control/Injury; for pest or weed control at 140 g/ha: rate 140 g ae/ha; for pest or weed control at 280 g/ha: rate 280 g ae/ha
Procedure, shortened: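 Growth-reduction values are percent decrease in plant size relative to untreated plants, scored 21 days post-application. Amaranthus rudis (2-8 leaves) received postemergence sprays at 140 or 280 g ae/ha, 187 L/ha, in a mixed acetone/DMSO/water/isopropanol carrier with crop oil concentrate. Greenhouse conditions were 25-28° C, 50-60% RH; 3-4 randomized replicates.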

[3] = system: Amaranthus palmeri (AMAPA); assay: as above; assay type: in vivo, Amaranthus palmeri (Palmer amaranth); conditions: post-emergence, 504 h, postemergence, read-out: Control/Injury; for pest or weed control at 140 g/ha: rate 140 g ae/ha; for pest or weed control at 280 g/ha: rate 280 g ae/ha
Procedure, shortened: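 Percent reduction in plant size relative to untreated plants, measured 21 days after track-sprayer application (187 L/ha) of 140 or 280 g ae/ha to Amaranthus palmeri at the 2 to 8 leaf stage. Randomized complete block, 3 or 4 replicates, greenhouse at 25 to 28° C; spray solution acetone/DMSO with isopropanol, water and crop oil concentrate.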

Kochia scoparia (KCHSC) = assay: as above; assay type: in vivo; conditions: Bassia scoparia, post-emergence, 504 h, KCHSC, postemergence, read-out: Control/Injury; for pest or weed control at 140 g/ha: rate 140 g ae/ha; for pest or weed control at 280 g/ha: rate 280 g ae/ha
Procedure, shortened: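 Values are percent reduction in plant size against an untreated control, measured 21 days after a single postemergence spray at 140 or 280 g ae/ha (187 L/ha, 276 kPa). Treatments used 3-4 randomized complete-block replicates on 2 to 8 leaf-stage plants kept in a 25-28 °C greenhouse, with compounds in acetone/DMSO-based solvent containing crop oil and surfactant.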

[4] = Volatility of compounds measured by thermogravimetric analysis (TGA), rate of weight loss; assay type: physicochemical; conditions: estimates of volatility
Text: Briefly, the rate of weight loss measured in units of […]g/min can be used to determine vapor pressure as shown by the simplified equation: wherein, k is the intrinsic volatility and A is the surface area, Referring now to FIG. 2. A graph of weight loss as function of time for solid samples produces a linear curve; the slope of the curve is the rate of weight loss. When this method is used to measure the volatility of aqueous salt concentrates or liquid concentrates, the water or acetone present in the sample volatilizes before the sample of interest. The first linear loss region of the curve is the loss of water or acetone and the second linear region is characteristic of the sample of interest. In order to illustrate the difference in volatility between some of the compounds disclosed herein and the widely used herbicide dicamba, data from both the compounds and dicamba are presented Table 3 and in FIG. 1.

Glycine max = assay: whole plant or invertebrate; conditions: Glycine max, post-emergence, 504 h, read-out: Control/Injury
Procedure, shortened: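 Greenhouse soybean (25–28 °C, 16 h light) sprayed post-emergence at 2–8 leaf stage with 140 or 280 g ae/ha in acetone/DMSO-based spray solution with crop oil concentrate, 187 L/ha by track sprayer; 3–4 replicates, randomized blocks. Plant size reduction versus untreated control measured 21 days after treatment.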

[5] = percent reduction vs untreated, 21 days after treatment
[6] = R-AMAPA, percent reduction vs untreated control, 21 days after treatment
[7] = percent reduction vs untreated control, 21 days after treatment

Structure (SMILES)	Volatility [4]	pest or weed control at 140 g/ha [1, 5]	pest or weed control at 280 g/ha [1, 5]	pest or weed control at 140 g/ha [2]	pest or weed control at 280 g/ha [2]	pest or weed control at 140 g/ha (Amaranthus rudis (AMATA))	pest or weed control at 280 g/ha (Amaranthus rudis (AMATA))	pest or weed control at 140 g/ha ([3]; AMAPA)	pest or weed control at 280 g/ha ([3]; AMAPA)	pest or weed control at 140 g/ha (Kochia scoparia (KCHSC); [5])	pest or weed control at 280 g/ha (Kochia scoparia (KCHSC); [5])	pest or weed control at 140 g/ha [3, 6]	pest or weed control at 280 g/ha [3, 6]	further results
COc1c(Cl)ccc(Cl)c1C(=O)Oc1cc2ccccc2n1C [Compound A-117]	0.04 ng/min	98%	95%	90%	97%	85%	85%	83%	89%	80%	98%			
COc1c(Cl)ccc(Cl)c1C(=O)O/N=C(\N)c1cccnc1 [Compound A-50]	0.09 ng/min			90%	100%	95%	97%					95%	99%	pest or weed control at 140 g/ha (Kochia scoparia (KCHSC)): 99%; pest or weed control at 280 g/ha (Kochia scoparia (KCHSC)): 99%
COc1c(Cl)ccc(Cl)c1C(=O)O/N=C(\SC)c1ccccc1 [Compound A-85]	0.28 ng/min			67%	78%	57%	73%					68%	72%	plant injury at 140 g/ha (Glycine max): 5%; plant injury at 280 g/ha (Glycine max): 7%; pest or weed control at 140 g/ha [1, 7]: 37%; pest or weed control at 280 g/ha [1, 7]: 68%; pest or weed control at 140 g/ha (Kochia scoparia (KCHSC); [7]): 95%; pest or weed control at 280 g/ha (Kochia scoparia (KCHSC); [7]): 97%
COc1c(Cl)ccc(Cl)c1C(=O)O/N=C/c1ccco1 [Compound A-88]	0.35 ng/min			70%	82%	72%	80%					67%	68%	plant injury at 140 g/ha (Glycine max): 10%; plant injury at 280 g/ha (Glycine max): 3%; pest or weed control at 140 g/ha [1, 7]: 75%; pest or weed control at 280 g/ha [1, 7]: 94%; pest or weed control at 140 g/ha (Kochia scoparia (KCHSC); [7]): 87%; pest or weed control at 280 g/ha (Kochia scoparia (KCHSC); [7]): 94%
COc1c(Cl)ccc(Cl)c1C(=O)O/N=C(\N)C(C)C [Compound A-48]	0.38 ng/min			85%	100%	60%	90%					90%	99%	pest or weed control at 140 g/ha (Kochia scoparia (KCHSC)): 90%; pest or weed control at 280 g/ha (Kochia scoparia (KCHSC)): 100%
COc1c(Cl)ccc(Cl)c1C(=O)NOCc1ccccc1 [Compound A-98]	0.08 ng/min			20%	15%	18%	13%	23%	20%	8%	0%			pest or weed control at 140 g/ha [1]: 2%; pest or weed control at 280 g/ha [1]: 3%

The next lines start with results.

Volatility [4]	Structure (SMILES)	pest or weed control at 140 g/ha [1, 5]	pest or weed control at 280 g/ha [1, 5]	pest or weed control at 140 g/ha [2]	pest or weed control at 280 g/ha [2]	pest or weed control at 140 g/ha (Amaranthus rudis (AMATA))	pest or weed control at 280 g/ha (Amaranthus rudis (AMATA))	pest or weed control at 140 g/ha ([3]; AMAPA)	pest or weed control at 280 g/ha ([3]; AMAPA)	pest or weed control at 140 g/ha (Kochia scoparia (KCHSC); [5])	pest or weed control at 280 g/ha (Kochia scoparia (KCHSC); [5])	pest or weed control at 140 g/ha [3, 6]	pest or weed control at 280 g/ha [3, 6]	further results
3.42 ng/min	CCCC[C@H](CC)COC(=O)c1c(Cl)ccc(Cl)c1OC [Compound A-137]	0%	0%	33%	36%	1%	8%	15%	15%	6%	3%			
0.086 ng/min	COc1c(Cl)ccc(Cl)c1C(=O)O/N=C(/C)N [Compound A-136]	94%	99%	87%	96%	68%	74%	85%	90%	76%	94%			
13.4 ng/min	COc1c(Cl)ccc(Cl)c1C(=O)N(C)OC [Compound A-129]			10%	15%	20%	23%	8%	20%	0%	5%			pest or weed control at 140 g/ha [1]: 38%; pest or weed control at 280 g/ha [1]: 0%
0.008 ng/min	COc1c(Cl)ccc(Cl)c1C(=O)O/N=C(\N)c1ccc2ccccc2c1 [Compound A-138]	75%	70%	79%	76%	65%	64%	73%	59%	91%	91%			
0.01 ng/min	COc1c(Cl)ccc(Cl)c1C(=O)Nc1ccnn1C [Compound A-134]		10%	33%	30%	15%	8%	15%	15%	0%	0%			pest or weed control at 140 g/ha [1]: 5%
